From patent US20260248879A1, “METHODS OF USING A GCG/GLP1 CO-AGONIST FOR THERAPY” (ELI LILLY AND COMPANY, priority 2022, published 2026)

Key:
individuals with obesity = assay: Example 2 multiple ascending dose study in obesity: body weight, waist circumference; format: in vivo, human
From the text: This study is designed to evaluate the safety, tolerability, PD and PK of dose to higher doses of Compound 1 in individuals with obesity. The Multiple Ascending Dose (MAD) study is a randomized, investigator- and participant-blind, placebo-controlled, multiple-ascending dose, single- or multi-site study conducted in individuals with obesity (i.e., females or males aged 18-70 years, inclusive, a BMI in the range of 27 kg/m^2 to 50 kg/m^2). Participants should have stable body weight for at least 3 months prior to the initiation of the study. Dose of Compound 1 is assessed with weekly dosing over 20 weeks in 2 cohorts. Each cohort comprises 12 patients-nine patients are administered Compound 1 and three patients are administered placebo. The dose for Cohort 1 is as follows: • 1.5 mg Compound 1 for 2 weeks; • 3.0 mg Compound 1 for 2 weeks; • 6.0 mg Compound 1 for 4 weeks; • 8.0 mg Compound 1 for 4 weeks; • 12.0 mg Compound 1 for 4 weeks; and • 16.0 mg Compound 1 for 4 weeks. The dose for Cohort 2 is as follows: • 2.0 mg Compound 1 for 3 weeks; • 4.0 mg Compound 1 for 3 weeks; • 6.0 mg Compound 1 for 3 weeks; • 8.0 mg Compound 1 for 3 weeks; • 10.0 mg Compound 1 for 2 weeks; • 13.0 mg Compound 1 for 2 weeks, and • 16.0 mg Compound 1 for 4 weeks. Body weight and waist circumference are measured at frequent intervals across dose from Day 1 through Day 138 and for an extended follow-up period after the conclusion of dosing. Mean absolute and percent change in body weight are calculated for Compound 1 and for placebo arms within each cohort and compared to baseline at multiple time points from Day 1 through Day 138 and throughout the extended follow-up period after the conclusion of dosing. Mean absolute and percent change in waist circumference are calculated for Compound 1 and for placebo arms within each cohort and compared to baseline at multiple time points from Day 1 through Day 138 and throughout the extended follow-up period after the conclusion of dosing. While the weight loss described in Example 1 is in a T2D patient population, greater weight loss is typical in an obesity patient population. A multiplier of 1.6-1.8 may be applied to percent weight loss moving from the T2D population to an obesity population.

patients with T2DM [1] = assay: Example 1 study: adverse events; format: in vivo
From the text: Investigators are responsible for monitoring the safety of patients who have entered this study. The investigator is responsible for the appropriate medical care of patients during the study. Investigators document their review of each laboratory safety report. The investigator remains responsible for following, through an appropriate health care option,
AEs that are serious or otherwise medically important, considered related to Compound 1 or the study, or that caused the patient to discontinue Compound 1 before completing the study. The patient is followed until the event resolves, stabilizes with appropriate diagnostic evaluation, or is reasonably explained. The frequency of follow-up evaluations of the AE is left to the discretion of the investigator.
The investigator records all relevant AE and SAE information. After receiving consent from the patient, study site personnel record the occurrence and nature of each patient's preexisting conditions, including clinically significant signs and symptoms of the disease under treatment in the study. Additionally, site personnel record any change in the condition(s) and the occurrence and nature of any AEs.
The investigator interprets and document whether or not an AE has a reasonable possibility of being related to study treatment, or a study procedure, taking into account the disease, concomitant treatment, or pathologies.
A “reasonable possibility” means that there is a potential cause and effect relationship between Compound 1, study device, and/or study procedure and the AE. Planned surgeries should not be reported as AEs unless the underlying medical condition has worsened during the course of the study.
A Serious Adverse Event (SAE) is any AE from this study that results in one of the following: • death • initial or prolonged inpatient hospitalization • a life-threatening experience (i.e., immediate risk of dying) • persistent or significant disability/incapacity • congenital anomaly/birth defect • important medical events that may not be immediately life-threatening or result in death or hospitalization but may jeopardize the patient or may require intervention to prevent one of the other outcomes listed in the definition above.
All AEs occurring after signing the ICF are recorded and assessed for serious criteria.

patients with T2DM [2] = assay: Example 1 study: gastric emptying (acetaminophen PK); format: in vivo, human
From the text: Acetaminophen is a well-established marker for the rate and extent of gastric emptying. It is rapidly absorbed from the duodenum upon release from the stomach. A delay in gastric emptying is reflected in the alterations to the concentration-time profile of acetaminophen, specifically, decreasing its Cmax and increasing time of maximum observed drug concentration (tmax) without altering the extent (total drug amount) absorbed. An oral solution dose of approximately 1 g acetaminophen is considered to be sufficient for bioanalytical detection and is administered as indicated below in respect of Cohorts 1 and 2. […] Concentrations of acetaminophen are assayed using a validated LC/MS method. Bioanalytical samples collected to measure acetaminophen concentrations are retained for a maximum of 2 years following last patient visit for the study.
In respect of Cohort 1, gastric emptying is assessed at baseline and Days 2 and 79.
In respect of Cohort 2, gastric emptying is assessed at baseline and Days 2 and 107.
The PK parameters of acetaminophen were compared between treatment groups to determine the rate and extent of gastric emptying. Prior to dosing with Compound 1, the PK profiles of acetaminophen on Day −1 were similar between the treatment groups. Within treatment groups, the Cmax of acetaminophen decreased from Day −1 during 12 weeks of multiple dosing with Compound 1. The Cmax of acetaminophen was lowest on Day 2 in both treatment groups. However, the change from baseline Cmax of acetaminophen increased at Day 107.

CC(C)C[C@H](NC(=O)[C@H](CC(C)C)NC(=O)[C@H](Cc1c[nH]c2ccccc12)NC(=O)[C@H](CCC(=O)O)NC(=O)[C@@H](NC(=O)[C@H](Cc1ccccc1)NC(=O)[C@H](CCC(=O)O)NC(=O)[C@H](CCCCNC(=O)COCCOCCNC(=O)COCCOCCNC(=O)CC[C@H](NC(=O)CCCCCCCCCCCCCCCCCCC(=O)O)C(=O)O)NC(=O)[C@H](C)NC(=O)[C@H](CCCCN)NC(=O)[C@H](CCCCN)NC(=O)[C@H](CCC(=O)O)NC(=O)[C@H](CC(=O)O)NC(=O)[C@H](CC(C)C)NC(=O)[C@H](Cc1ccc(O)cc1)NC(=O)[C@H](CCCCN)NC(=O)[C@H](CO)NC(=O)[C@H](Cc1ccc(O)cc1)NC(=O)[C@H](CC(=O)O)NC(=O)[C@H](CO)NC(=O)[C@@H](NC(=O)[C@H](Cc1ccccc1)NC(=O)[C@@H](NC(=O)CNC(=O)[C@H](CCC(N)=O)NC(=O)C(C)(C)NC(=O)[C@@H](N)Cc1c[nH]cn1)[C@@H](C)O)[C@@H](C)O)C(C)C)C(=O)N[C@@H](CCC(=O)O)C(=O)NCC(=O)NCC(=O)N1CCC[C@H]1C(=O)N[C@@H](CO)C(=O)N[C@@H](CO)C(=O)NCC(N)=O [Compound 1]
mean waist circumference change (individuals with obesity; Ex. 2 Cohort 1, Day 85/12 weeks (after 4 weeks of 8 mg), placebo +0.04%): −5.2%
mean percent change from baseline in body weight (individuals with obesity; Ex. 2 Cohort 1, Day 113/16 weeks, after 4 weeks of 12 mg, placebo +0.7%): −15.4%
mean waist circumference change (individuals with obesity; Ex. 2 Cohort 1, Day 113/16 weeks, after 4 weeks of 12 mg, placebo +1.3%): −6.3%
mean waist circumference change (individuals with obesity; Ex. 2 Cohort 1, Day 138/20 weeks, after 4 weeks of 16 mg, placebo +0.4%): −11.5%
mean waist circumference change (individuals with obesity; Ex. 2 Cohort 2, Day 85/12 weeks (after 8 mg), placebo +0.04%): −7.6%
mean percent change from baseline in body weight (individuals with obesity; Ex. 2 Cohort 2, Day 85/12 weeks (after 8 mg), placebo +0.2%): −11.7%
mean percent change from baseline in body weight (individuals with obesity; Ex. 2 Cohort 2, Day 99/14 weeks, after 2 weeks of 10 mg, placebo +0.07%): −13.4%
mean waist circumference change (individuals with obesity; Ex. 2 Cohort 2, Day 99/14 weeks, after 2 weeks of 10 mg, placebo +1.0%): −6.8%
mean percent change from baseline in body weight (individuals with obesity; Ex. 2 Cohort 2, Day 113/16 weeks, after 2 weeks of 13 mg, placebo +0.7%): −16.2%
mean waist circumference change (individuals with obesity; Ex. 2 Cohort 2, Day 113/16 weeks, after 2 weeks of 13 mg, placebo +1.3%): −12.6%
mean waist circumference change (individuals with obesity; Ex. 2 Cohort 2, Day 138/20 weeks, after 4 weeks of 16 mg, placebo +0.4%): −16.6%
SAE reported, MedDRA preferred term (patients with T2DM [1]; in vivo): Sarcoidosis
abdominal pain, number of participants (patients with T2DM [1]; in vivo): 1
abdominal pain, percentage of participants (patients with T2DM [1]; in vivo): 5.6%
constipation, number of participants (patients with T2DM [1]; in vivo): 2
constipation, percentage of participants (patients with T2DM [1]; in vivo): 11.1%
diarrhea, number of participants (patients with T2DM [1]; in vivo): 4
diarrhea, percentage of participants (patients with T2DM [1]; in vivo): 22.2%
eructation, number of participants (patients with T2DM [1]; in vivo): 4
eructation, percentage of participants (patients with T2DM [1]; in vivo): 22.2%
nausea, number of participants (patients with T2DM [1]; in vivo): 7
nausea, percentage of participants (patients with T2DM [1]; in vivo): 38.9%
number of patients treated with study intervention reporting an SAE (patients with T2DM [1]; in vivo): 1
number of patients with TEAEs (patients with T2DM [1]; in vivo): 17
vomiting, number of participants (patients with T2DM [1]; in vivo): 5
vomiting, percentage of participants (patients with T2DM [1]; in vivo): 27.8%
deaths (patients with T2DM [1]; whole study): No deaths occurred
acetaminophen Cmax, Change From Baseline (Est % change) (patients with T2DM [2]; Cohort 1, Day 2): (0.83) %
acetaminophen tmax, Change From Baseline (Est % change) (patients with T2DM [2]; Cohort 1, Day 2): (1.06) %
acetaminophen tmax (patients with T2DM [2]; Cohort 1, Day 2, Day −1 2.671): 1.963 h
acetaminophen Cmax, Change From Baseline (Est % change) (patients with T2DM [2]; Cohort 1, Day 79): (0.9) %
acetaminophen tmax (patients with T2DM [2]; Cohort 1, Day 79): 1.478 h
acetaminophen tmax, Change From Baseline (Est % change) (patients with T2DM [2]; Cohort 1, Day 79): (0.8) %
acetaminophen Cmax, Change From Baseline (Est % change) (patients with T2DM [2]; Cohort 2, Day 2): (0.79) %
acetaminophen tmax, Change From Baseline (Est % change) (patients with T2DM [2]; Cohort 2, Day 2): (0.89) %
acetaminophen tmax, Change From Baseline, Mean (patients with T2DM [2]; Cohort 2, Day 2): 0.187 h
acetaminophen tmax (patients with T2DM [2]; Cohort 2, Day 2, Day −1 1.214): 1.423 h
acetaminophen Cmax, Change From Baseline (Est % change) (patients with T2DM [2]; Cohort 2, Day 107): (1.18) %
acetaminophen tmax (patients with T2DM [2]; Cohort 2, Day 107): 0.909 h
acetaminophen tmax, Change From Baseline (Est % change) (patients with T2DM [2]; Cohort 2, Day 107): (0.89) %
acetaminophen tmax, Change From Baseline, Mean (patients with T2DM [2]; Cohort 2, Day 107): 0.75 h
